Measurements: patent publication US5741671A, “Isolation cloning and expression of transmembrane water channel aquaporin 1(AQP1)” (The Johns Hopkins University, priority 1995, dated 1998)

Assay: Stopped-flow osmotic water permeability of control liposomes
Assay type: biochemical
Conditions: mercurial reagent 1 mM
Procedure: Purified AQP1 was stored overnight at 0° C. or frozen for several days at -80° C. prior to reconstitution. Reconstitution into proteoliposomes was carried out in a final volume of 1 ml containing 60-90 μg of purified AQP1 protein in chromatography buffer, 9 mg of bath-sonicated E. coli phospholipid, 1.25% (w/v) octyl glucoside, and 50 mM Tris-HCl (pH 7.5). The mixture was briefly blended on a vortex mixer and incubated for 20 minutes on ice. […] Protein and phospholipid were measured as described by Ambudkar & Maloney (J. Biol. Chem., 1986, 261:10079-10086).
Permeability measurements. Membrane permeability measurements (Pf) were measured by exposing AQP1 proteoliposomes or control liposomes to an osmotic gradient by rapid mixing with an equal volume of another solution containing buffer A plus sufficient sucrose to increase osmolality in the mixed solutions to a value 120% of that in the original solution. This was performed with a stopped-flow fluorometer (SF.17MV, Applied Photophysics, Leatherhead, U.K.) with a measured dead time of 0.7 ms. […] Extravesicular carboxyfluorescein fluorescence was completely quenched using anti-fluorescein antibody (Harris et al., 1990, Am. J. Physiol. 259:F366-F371). […]

For `[Cl][Hg][Cl]` [HgCl2], which “effect on the Pf of control liposomes” value is on record?
The value was “Neither pCMBS nor HgCl2 had any effect”.
